ChEMBL document CHEMBL1201862, “PubChem BioAssay data set” (2004)
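All cell lines were grown in 96-well plates and treated with compound for 48 hours. GI50 is the concentration that inhibits growth by half.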 Activity calls are given as the source filed them. Rule as the data show it: active = GI50 up to about 1.1 µM and inactive = higher.

Assays:
Assay in all cases: growth of human tumour cells (NCI), 48 h
[1] = test system: SF-295
[2] = test system: NCI-H23
[3] = test system: K562
[4] = test system: A498
[5] = test system: UACC-257
[6] = test system: MOLT-4
[7] = test system: TK-10
[8] = test system: NCI-H460
[9] = test system: SN12C
[10] = test system: SK-OV-3
[11] = test system: NCI-H226
[12] = test system: DLD-1
[13] = test system: SNB-19
[14] = test system: LOX IMVI
[15] = test system: HCC 2998
[16] = test system: Malme-3M
[17] = test system: OVCAR-4
[18] = test system: LXFL 529
[19] = test system: DMS-114
[20] = test system: RXF 393
[21] = test system: SR
[22] = test system: HCT-15
[23] = test system: KM-20L2
[24] = test system: COLO 205
[25] = test system: M19-MEL
[26] = test system: SW-620
[27] = test system: OVCAR-3
[28] = test system: DMS-273
[29] = test system: SK-MEL-5
[30] = test system: RPMI-8226
[31] = test system: EKVX
[32] = test system: XF498
[33] = test system: UACC-62
[34] = test system: SK-MEL-28
[35] = test system: UO-31
[36] = test system: A549
[37] = test system: SK-MEL-2
[38] = test system: SF-268
[39] = test system: HOP-18
[40] = test system: ACHN
[41] = test system: HT-29
[42] = test system: HOP-62
[43] = test system: OVCAR-8
[44] = test system: HCT-116
[45] = test system: SF-539
[46] = test system: KM12
[47] = test system: NCI-H522
[48] = test system: HOP-92
[49] = test system: CCRF-CEM
[50] = test system: IGROV-1
[51] = test system: SNB-78
[52] = test system: SNB-75
[53] = test system: U-251
[54] = test system: OVCAR-5
[55] = test system: 786-0
[56] = test system: M14
[57] = test system: HL-60

With C=C/C=C(\NC(=O)C(Cl)(Cl)Cl)[Si](C)(C)C the GI50 [1] was > 100 µM (inactive), the GI50 [2] was > 100 µM (inactive) and the GI50 [3] was > 100 µM (inactive). For the same molecule, the GI50 [4] was > 100 µM (inactive), the GI50 [5] was > 100 µM (inactive) and the GI50 [6] was > 100 µM (inactive). The GI50 [7] was > 100 µM (inactive), the GI50 [8] was > 100 µM (inactive) and the GI50 [9] was > 100 µM (inactive). For the same molecule, the GI50 [10] was > 100 µM (inactive), the GI50 [11] was > 100 µM (inactive) and the GI50 [12] was > 100 µM (inactive). The GI50 [13] was > 100 µM (inactive), the GI50 [14] was > 100 µM (inactive) and the GI50 [15] was > 100 µM (inactive). The GI50 [16] was > 100 µM (inactive), the GI50 [17] was > 100 µM (inactive) and the GI50 [18] was > 100 µM (inactive). The GI50 [19] was > 100 µM (inactive), the GI50 [20] was > 100 µM (inactive) and the GI50 [21] was > 100 µM (inactive). For the same molecule, the GI50 [22] was over 100 µM, the GI50 [23] was > 100 µM (inactive) and the GI50 [24] was > 100 µM (inactive). For the same molecule, the GI50 [25] was > 100 µM (inactive), the GI50 [26] was > 100 µM (inactive) and the GI50 [27] was > 100 µM (inactive). For the same molecule, the GI50 [28] was > 100 µM (inactive), the GI50 [29] was > 100 µM (inactive) and the GI50 [30] was > 100 µM (inactive). The GI50 [31] was > 100 µM (inactive), the GI50 [32] was > 100 µM (inactive) and the GI50 [33] was > 100 µM (inactive). The GI50 [34] was > 100 µM (inactive), the GI50 [35] was > 100 µM (inactive) and the GI50 [36] was > 100 µM (inactive). For the same molecule, the GI50 [37] was > 100 µM (inactive), the GI50 [38] was > 100 µM (inactive) and the GI50 [39] was > 100 µM (inactive). For the same molecule, the GI50 [40] was > 100 µM (inactive), the GI50 [41] was > 100 µM (inactive) and the GI50 [42] was > 100 µM (inactive). For the same molecule, the GI50 [43] was > 100 µM (inactive), the GI50 [44] was > 100 µM (inactive) and the GI50 [45] was > 100 µM (inactive). The GI50 [46] was > 100 µM (inactive), the GI50 [47] was > 100 µM (inactive) and the GI50 [48] was > 100 µM (inactive). For the same molecule, the GI50 [49] was > 100 µM (inactive), the GI50 [50] was > 100 µM (inactive) and the GI50 [51] was > 100 µM (inactive). For the same molecule, the GI50 [52] was > 100 µM (inactive), the GI50 [53] was > 100 µM (inactive) and the GI50 [54] was > 100 µM (inactive). For the same molecule, the GI50 [55] was > 100 µM (inactive), the GI50 [56] was > 100 µM (inactive) and the GI50 [57] was > 100 µM (inactive).
